The ΔTm is the shift of the melting midpoint relative to a reference.

The target in experiment [1] is T1, MAP2K6A (Homo sapiens, UniProt P52564).
T1 construct: purchased in-house DSF panel (SGC-style construct names; the trailing A/B is a construct suffix)
T1 sequence (P52564 1-334): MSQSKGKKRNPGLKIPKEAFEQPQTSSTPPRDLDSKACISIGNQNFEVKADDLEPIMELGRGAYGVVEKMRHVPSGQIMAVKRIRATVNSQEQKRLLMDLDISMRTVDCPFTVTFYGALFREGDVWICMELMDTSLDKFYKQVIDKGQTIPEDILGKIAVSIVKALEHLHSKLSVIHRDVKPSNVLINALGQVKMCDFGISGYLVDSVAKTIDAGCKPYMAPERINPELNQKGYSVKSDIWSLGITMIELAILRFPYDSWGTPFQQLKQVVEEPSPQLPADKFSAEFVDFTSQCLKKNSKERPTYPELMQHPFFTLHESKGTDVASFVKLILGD
In words: DSF assay. Particulars: 20 µM compound. Type of experiment: binding. A general note: DSF heats the sample and reads unfolding from a dye or from intrinsic fluorescence.

Experiment [2] addresses GPRK5A (Homo sapiens, UniProt P34947). In words: DSF assay. The note with it: 20 µM compound. The experiment is classed as binding.
In experiment [3] the target is T2, STK4A (Homo sapiens, UniProt Q13043).
T2 construct: purchased in-house DSF panel (SGC-style construct names; the trailing A/B is a construct suffix)
T2 sequence (Q13043 1-311): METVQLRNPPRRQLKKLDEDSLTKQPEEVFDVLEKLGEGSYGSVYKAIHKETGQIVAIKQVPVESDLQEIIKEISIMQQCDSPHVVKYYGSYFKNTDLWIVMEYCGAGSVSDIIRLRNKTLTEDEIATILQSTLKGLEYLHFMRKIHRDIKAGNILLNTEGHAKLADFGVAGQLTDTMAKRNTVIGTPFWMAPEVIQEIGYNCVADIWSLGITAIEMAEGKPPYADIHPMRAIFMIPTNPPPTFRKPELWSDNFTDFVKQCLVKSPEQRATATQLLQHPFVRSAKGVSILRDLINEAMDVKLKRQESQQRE
In words: DSF assay. Type of experiment: binding. Particulars: 20 µM compound.

Experiment [4] concerns the target T3, MAP2K4 (Homo sapiens, UniProt P45985).
T3 construct: purchased in-house DSF panel (SGC-style construct names; the trailing A/B is a construct suffix)
T3 sequence (P45985 102-367): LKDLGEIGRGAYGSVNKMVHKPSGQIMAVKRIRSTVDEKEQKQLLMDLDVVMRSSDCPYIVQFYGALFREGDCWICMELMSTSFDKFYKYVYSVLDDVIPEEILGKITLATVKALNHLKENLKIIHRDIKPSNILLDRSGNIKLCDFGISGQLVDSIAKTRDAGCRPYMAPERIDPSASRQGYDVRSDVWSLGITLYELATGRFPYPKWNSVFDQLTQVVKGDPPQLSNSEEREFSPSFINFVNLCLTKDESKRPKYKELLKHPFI
In words: DSF assay. Particulars: 20 µM compound. Type of experiment: binding.

Experiment [5] has as its target T4, AAK1A (Homo sapiens, UniProt Q2M2I8).
T4 construct: purchased in-house DSF panel (SGC-style construct names; the trailing A/B is a construct suffix)
In words: DSF assay. The experiment is classed as binding. Particulars: 20 µM compound.

Experiment [6] has as its target T5, MAPK1A (Homo sapiens, UniProt P28482).
T5 construct: purchased in-house DSF panel (SGC-style construct names; the trailing A/B is a construct suffix)
Briefly: DSF assay. Type of experiment: binding. The note with it: 20 µM compound.

For experiment [7], the target named is T6, ITK (Homo sapiens, UniProt Q08881).
T6 construct: endogenous in cells; host or cells: Jurkat
T6 sequence (Q08881 1-620): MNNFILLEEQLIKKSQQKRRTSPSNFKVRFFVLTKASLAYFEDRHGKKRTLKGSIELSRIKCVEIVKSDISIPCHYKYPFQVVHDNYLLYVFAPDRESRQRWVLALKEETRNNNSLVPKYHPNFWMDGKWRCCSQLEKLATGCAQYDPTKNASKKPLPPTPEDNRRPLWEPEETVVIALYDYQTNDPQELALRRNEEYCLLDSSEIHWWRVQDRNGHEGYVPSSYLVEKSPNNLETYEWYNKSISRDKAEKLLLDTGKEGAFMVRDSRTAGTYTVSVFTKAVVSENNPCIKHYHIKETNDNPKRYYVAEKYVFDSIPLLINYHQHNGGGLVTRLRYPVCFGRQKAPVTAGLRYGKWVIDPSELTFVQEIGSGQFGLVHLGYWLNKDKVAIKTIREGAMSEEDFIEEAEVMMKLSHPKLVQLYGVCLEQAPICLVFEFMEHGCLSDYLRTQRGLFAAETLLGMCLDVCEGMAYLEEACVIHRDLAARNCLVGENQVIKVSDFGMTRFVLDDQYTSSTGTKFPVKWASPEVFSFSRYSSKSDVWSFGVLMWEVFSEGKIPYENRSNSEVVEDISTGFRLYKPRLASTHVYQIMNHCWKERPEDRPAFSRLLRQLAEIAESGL
Briefly: Western blot assay. The note with it: Jurkat cells, 6 h. The experiment is classed as cell-based. The procedure: Two mL of Jurkat cells were seeded into 6 well plates (Greiner) at a density of 5·10 5 cells/mL.
The following day, cells were treated with compounds at according concentrations or DMSO for 6 hours and then lysed with 6 M Urea at 4 °C for 20 minutes. The lysates were centrifuged for 15 minutes at 16000 g and the supernatant was collected to perform the Western-Blot.
Protein quantification was performed using nanodrop One. The SDS samples were prepared […]
The samples were separated by a BIS-TRIS polyacrylamide gel polyacrylamide gel, 100 V for 1:45) followed by transfer to PVDF membranes (Millipore) at 350 mA for 140 minutes. The membranes were blocked using 5%wt/vol BSA (in TBS-T, 20 mM Tris-HCl, pH 7.5, 150 mM NaCl and 0.1% (vol/vol) Tween 20) at room temperature for 1 hour.
The blots were incubated with respective primary antibodies at 1:1000 dilution (Cell Signaling technologies: Aurora A (D3E4Q), ITK (2F12) and GAPDH (D4C6R)) at 4 °C overnight. The blots were washed with TBS-T thrice and incubated with 1:5000 dilution of horseradish peroxidase (HRP)-labelled respective secondary antibodies (Cell Signaling technologies, Anti- […]
The blots were washed with TBS-T thrice and then incubated with chemiluminescent HRP substrate (Bio-Rad) for 2 minutes. The blots were imaged and the signals were detected using the Amersham ImageQuant 800 (Cytiva).
Cell culture. Human MV4-11 ([…]) and human Jurkat ([…]) cells were cultured in RPMI- […]
°C in 5% CO2. Both media were supplemented with 10% FBS and 1% penicillin/streptomycin. […]
For orientation: In western blotting, separated proteins are transferred to a membrane and probed.

T4 sequence (Q2M2I8 27-365): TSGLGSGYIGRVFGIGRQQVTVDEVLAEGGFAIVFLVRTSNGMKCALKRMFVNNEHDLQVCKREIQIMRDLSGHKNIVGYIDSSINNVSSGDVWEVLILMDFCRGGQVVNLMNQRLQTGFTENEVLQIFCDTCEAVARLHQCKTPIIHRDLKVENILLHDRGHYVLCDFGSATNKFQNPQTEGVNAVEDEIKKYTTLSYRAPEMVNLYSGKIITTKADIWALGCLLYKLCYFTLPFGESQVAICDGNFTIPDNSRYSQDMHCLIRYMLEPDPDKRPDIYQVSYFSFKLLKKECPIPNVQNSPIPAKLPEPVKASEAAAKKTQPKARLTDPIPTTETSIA
Sequence of GPRK5A (P34947 186-514 limits assumed): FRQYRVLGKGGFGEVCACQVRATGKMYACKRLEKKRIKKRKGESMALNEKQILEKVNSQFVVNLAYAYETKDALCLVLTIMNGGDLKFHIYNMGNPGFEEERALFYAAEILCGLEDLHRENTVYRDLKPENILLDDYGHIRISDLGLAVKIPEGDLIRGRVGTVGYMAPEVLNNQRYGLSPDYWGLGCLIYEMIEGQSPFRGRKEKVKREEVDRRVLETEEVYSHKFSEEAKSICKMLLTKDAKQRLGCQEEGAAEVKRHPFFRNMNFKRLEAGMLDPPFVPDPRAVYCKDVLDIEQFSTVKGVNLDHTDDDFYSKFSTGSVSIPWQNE
T5 sequence (P28482 whole entry): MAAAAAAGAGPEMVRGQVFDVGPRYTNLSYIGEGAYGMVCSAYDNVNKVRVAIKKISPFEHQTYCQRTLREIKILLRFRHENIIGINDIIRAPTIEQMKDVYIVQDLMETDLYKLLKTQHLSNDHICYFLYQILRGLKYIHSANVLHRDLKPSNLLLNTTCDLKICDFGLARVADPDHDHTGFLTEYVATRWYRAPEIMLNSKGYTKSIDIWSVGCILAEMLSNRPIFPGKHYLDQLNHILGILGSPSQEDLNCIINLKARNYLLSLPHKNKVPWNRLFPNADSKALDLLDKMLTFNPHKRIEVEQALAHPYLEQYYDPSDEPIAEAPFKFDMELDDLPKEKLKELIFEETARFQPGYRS

In the case of `CC(C)(C)OC(=O)NCCCOCCOCCOCCCNC(=O)c1cc(Nc2cc(C3CC3)[nH]n2)nc(Nc2ccc(CC#N)cc2)n1` [5-L], the shift in melting temperature (ΔTm) at 20 µM in experiment [1] was 5.96 °C; in experiment [2] it was 2.55 °C; in experiment [3] it was 7.44 °C; in experiment [4] it was 2.91 °C; in experiment [5], 12.1 °C; in experiment [6] it was 4.69 °C.
With `Cc1ncsc1-c1ccc(CNC(=O)[C@@H]2C[C@@H](O)CN2C(=O)[C@@H](NC(=O)CCOCCOCCOCCN2CCN(c3cc(Nc4cc(C5CC5)[nH]n4)nc(Nc4ccc(CC#N)cc4)n3)CC2)C(C)(C)C)cc1` [4-a], the “ITK protein levels (Western blot)” value in experiment [7] is recorded as “dose-dependent degradation of ITK”.
`Cc1ncsc1-c1ccc(CNC(=O)[C@@H]2C[C@@H](O)CN2C(=O)[C@@H](NC(=O)CCOCCOCCOCCOCCN2CCN(c3ccc(Nc4ncc(Cl)c(Nc5ccccc5C(N)=O)n4)cc3)CC2)C(C)(C)C)cc1` [6-b]: the “ITK protein levels (Western blot)” value in experiment [7] is on record as “dose-dependent degradation of ITK”.
Still for that read-out and setting: for `Cc1ncsc1-c1ccc(CNC(=O)[C@@H]2C[C@H](O)CN2C(=O)[C@@H](NC(=O)CCOCCOCCOCCOCCN2CCN(c3ccc(Nc4ncc(Cl)c(Nc5ccccc5C(N)=O)n4)cc3)CC2)C(C)(C)C)cc1` [6-b^neg] the value was “did not cause any degradation of ITK”.
As for `CCOC(=O)c1cc(Nc2cc(C3CC3)[nH]n2)nc(Nc2ccc(CC#N)cc2)n1` [compound 5], the ΔTm at 20 µM in experiment [1] was determined as 8.41 °C; in experiment [2] it was 1.7 °C; in experiment [3], 8.99 °C; in experiment [4], 5.55 °C; in experiment [5], 10.1 °C; in experiment [6] it was 4.85 °C.
For the molecule `Cc1ncsc1-c1ccc(CNC(=O)[C@@H]2C[C@H](O)CN2C(=O)[C@@H](NC(=O)CCOCCOCCOCCN2CCN(c3cc(Nc4cc(C5CC5)[nH]n4)nc(Nc4ccc(CC#N)cc4)n3)CC2)C(C)(C)C)cc1` [4-a^neg], in experiment [7], the “ITK protein levels (Western blot)” value is listed as “did not cause any degradation of ITK”.
With `CC(C)(C)OC(=O)NCCOCCOCCOCCOCCC(=O)N1CCN(c2cc(Nc3cc(C4CC4)[nH]n3)nc(Nc3ccc(CC#N)cc3)n2)CC1` [4-L], the ΔTm at 20 µM stood at 5.77 °C in experiment [1]; 2.06 °C in experiment [2]; 9.02 °C in experiment [3]; 2.65 °C in experiment [4]; 13.2 °C in experiment [5]; 3.2 °C in experiment [6].

Values taken from publication PMC11851430, “Workflow for E3 Ligase Ligand Validation for PROTAC Development” (ACS Chemical Biology, 2025).
